Data on twelve compounds can be found in patent US6720343B2, “Oxadiazole derivatives having anticancer effects” (Shionogi & Co., Ltd., priority 2002, dated 2004).

One series addresses T1, MMP-2 (Homo sapiens, UniProt P08253).
T1 construct: purchased Calbiochem-Novabiochem International, Inc
T1 sequence (P08253 110-660): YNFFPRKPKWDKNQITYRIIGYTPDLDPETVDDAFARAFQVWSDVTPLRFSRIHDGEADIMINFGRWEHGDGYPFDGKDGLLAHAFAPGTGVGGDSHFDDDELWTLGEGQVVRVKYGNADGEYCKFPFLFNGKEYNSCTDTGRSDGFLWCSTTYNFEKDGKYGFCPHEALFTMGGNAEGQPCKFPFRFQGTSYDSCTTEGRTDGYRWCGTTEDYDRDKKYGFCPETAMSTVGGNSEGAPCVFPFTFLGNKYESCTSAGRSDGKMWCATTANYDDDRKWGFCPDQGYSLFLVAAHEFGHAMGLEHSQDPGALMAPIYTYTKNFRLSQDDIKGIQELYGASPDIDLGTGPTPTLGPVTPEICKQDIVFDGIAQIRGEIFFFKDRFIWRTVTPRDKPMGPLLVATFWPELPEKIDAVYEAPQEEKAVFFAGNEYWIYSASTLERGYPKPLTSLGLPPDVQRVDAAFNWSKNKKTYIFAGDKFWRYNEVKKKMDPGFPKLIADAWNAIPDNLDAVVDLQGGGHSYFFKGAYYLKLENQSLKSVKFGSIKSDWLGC
Nature of the series: Assay for inhibitory activities on MMPs (fluorogenic peptide substrate), MMP-2. Format: biochemical. As for the experimental part:
MMP-2 was purchased from Calbiochem-Novabiochem International, Inc.
(§1) The enzymatic activity on MMPs was analyzed by the method described in “C. […] The substrate (MOCAc-Pro-Leu-Gly-Leu-A2Pr(DNP)-Ala-Arg-NH2) was purchased from Peptide Institute, Inc., Osaka, Japan.
(§2) The measurement of the inhibitory activities (IC50) was carried out by the following four methods;
(§3) A) Reaction with substrate, enzyme (MMPs) and inhibitor
(§4) B) Reaction with substrate and inhibitor, without enzyme
(§5) C) Reaction with substrate and enzyme (MMPs), without inhibitor
(§6) D) Reaction with substrate only
(§7) IC50 values were calculated by using the following formula and each fluorescence values of above four methods (A to D).
(§8) % inhibition={1−(A−B)/(C−D)}×100

In the next series the target is T2, MMP-8 Catalytic domain (Homo sapiens, UniProt P22894).
T2 construct: MMP-8 Catalytic domain (^99Phe˜^262Gly); His-tag; Enterokinase digestion site; made in house; host or cells: E. coli
Nature of the series: Assay for inhibitory activities on MMPs (fluorogenic peptide substrate), MMP-8. In kind it is biochemical. On the procedure: The DNA fragment was cloned into an E. coli expression vector, pTrc99A containing the His-tag sequence and Enterokinase digestion site. The MMP-8 Catalytic domain expression was induced by the addition of IPTG (Isopropyl-β-D-thiogalactopyranoside), and the cell pellet containing MMP-8 Catalytic domain was obtained. […] Isolation of MMP-8 from the cell pellet was used by general techniques. After the cell pellet was dissolved in 6M urea, the solution was loaded onto a metal-chelating matrix. Subsequently, dialysis was used to remove urea and refold of MMP=8. And then active MMP-8 was obtained.
as §1, §2, §3, §4, §5, §6, §7, §8

A further series addresses T3, MMP-9 (Homo sapiens, UniProt P14780).
T3 construct: purchased Calbiochem-Novabiochem International, Inc
As to the kind of experiment: Assay for inhibitory activities on MMPs (fluorogenic peptide substrate), MMP-9. Format: biochemical. As for the experimental part:
MMP-9 was purchased from Calbiochem-Novabiochem International, Inc.
as §1, §2, §3, §4, §5, §6, §7, §8

Series [1] deals with Lewis mouse lung carcinoma cells. As to the kind of experiment: Antitumor efficacy using artificial lung metastasis of Lewis mouse lung carcinoma. Format: in vivo, BDF1 mice. The conditions noted are these: for inhibition in vivo at 20 mg/kg / inhibition in vivo at 200 mg/kg / inhibition in vivo at 2 mg/kg: Mus musculus, po, 336 h, read-out: Inhibition (%). As for the experimental part:
Lewis mouse lung carcinoma cells (4×10^5 cells) were inoculated into the tail vein of BDF1 mice. […] The doses of the compounds were 20 and 200 mg/kg or 2 and 20 mg/kg. At 14 day after tumor inoculation, tumor nodules formed in the lung of the treated mice were counted and the antitumor efficacy was evaluated.

Setting [2] is: experiment 3-2, 20 mg/kg oral, five times, lung tumor nodules at day 14.
[3] abbreviates: experiment 3-2, 200 mg/kg oral, five times, lung tumor nodules at day 14.
The mark [4] stands for this setting: experiment 3-1, 20 mg/kg oral, five times, lung tumor nodules at day 14.
Setting [5] is: experiment 3-1, 200 mg/kg oral, five times, lung tumor nodules at day 14.
The mark [6] stands for this setting: experiment 3-3, 2 mg/kg oral, five times, lung tumor nodules at day 14.
Setting [7] is: experiment 3-3, 20 mg/kg oral, five times, lung tumor nodules at day 14.

Read-outs that look alike come from different tables or passages of the source. Where only a bound is given, the exact number is not on record here.

T2 sequence (P22894 99-262): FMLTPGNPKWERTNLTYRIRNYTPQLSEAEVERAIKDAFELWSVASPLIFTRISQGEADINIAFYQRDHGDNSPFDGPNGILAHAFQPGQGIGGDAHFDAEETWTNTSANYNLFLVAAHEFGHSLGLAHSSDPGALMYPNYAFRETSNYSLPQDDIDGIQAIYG
T3 sequence (P14780 94-707): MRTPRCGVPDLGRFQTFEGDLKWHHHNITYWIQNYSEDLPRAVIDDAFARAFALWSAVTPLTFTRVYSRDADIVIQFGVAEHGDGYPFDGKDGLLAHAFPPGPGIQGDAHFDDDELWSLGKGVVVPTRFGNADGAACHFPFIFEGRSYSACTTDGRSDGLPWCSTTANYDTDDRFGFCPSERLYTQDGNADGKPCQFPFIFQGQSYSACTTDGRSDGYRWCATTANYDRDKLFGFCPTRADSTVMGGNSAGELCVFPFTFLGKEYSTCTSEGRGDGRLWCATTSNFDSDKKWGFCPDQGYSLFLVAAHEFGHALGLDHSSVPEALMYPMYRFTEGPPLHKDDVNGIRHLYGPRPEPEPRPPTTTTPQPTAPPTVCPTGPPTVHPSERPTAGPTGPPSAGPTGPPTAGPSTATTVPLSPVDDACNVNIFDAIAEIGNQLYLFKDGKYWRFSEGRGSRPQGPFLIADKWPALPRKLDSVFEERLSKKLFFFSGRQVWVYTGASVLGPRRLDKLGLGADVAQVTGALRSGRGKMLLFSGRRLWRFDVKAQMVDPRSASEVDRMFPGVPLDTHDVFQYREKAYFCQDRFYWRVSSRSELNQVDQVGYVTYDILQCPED

On to `CC(C)[C@@H](NS(=O)(=O)c1ccc(-c2nc(-c3cccs3)no2)cc1)C(=O)O` [Compound A-5], for which the IC50 (usually the concentration needed to halve the response being measured) against MMP-2 was 30 nM; at MMP-8 Catalytic domain it was 610 nM; against MMP-9, above 1000 nM. Further, in series [1] (setting [2]), the inhibition in vivo at 20 mg/kg came out at 24%. The inhibition in vivo at 200 mg/kg in series [1] (setting [3]) was found to be 37%. Also, the figures for the “Number of colonies (Mean ± SD)” value in series [1] (setting [2]) and in series [1] (setting [3]) were 41.8 ± 22.5 and 34.8 ± 12.1, respectively.

As for `CCc1ccc(-c2noc(-c3ccc(S(=O)(=O)N[C@H](Cc4ccccc4)C(=O)O)cc3)n2)cc1` [Compound A-7], the figures for the IC50 against MMP-2, against MMP-8 Catalytic domain and against MMP-9 were 8 nM, above 1000 nM and 78 nM, respectively. Further, the inhibition in vivo at 20 mg/kg in series [1] (setting [4]) was 56%. Moreover, the inhibition in vivo at 200 mg/kg in series [1] (setting [5]) was determined as 49%. The results for the “Number of colonies (Mean ± SD)” value in series [1] (setting [4]) and in series [1] (setting [5]) were 18.8 ± 6.9 and 21.7 ± 9.6, respectively.

`Cc1ccc(-c2noc(-c3ccc(S(=O)(=O)N[C@H](C)C(=O)O)cc3)n2)cc1` [Compound A-1]: the melting point (commonly the temperature of the solid-liquid transition) lay in the range of 200 to 203 °C. Besides, the 50% inhibitory concentration (IC50) against MMP-2 is 30 nM. The half-maximal inhibitory concentration (IC50) against MMP-8 Catalytic domain was above 1000 nM. Also, at MMP-9, half-maximal inhibition (IC50) was put at 470 nM. Further, in series [1] (setting [4]), the inhibition in vivo at 20 mg/kg came to 53% and the “Number of colonies (Mean ± SD)” value came out at 20.2 ± 13.3. Moreover, in series [1] (setting [5]), the inhibition in vivo at 200 mg/kg is 69% and the “Number of colonies (Mean ± SD)” value stood at 13.3 ± 11.8.

For `O=C(O)[C@@H](Cc1ccccc1)NS(=O)(=O)c1ccc(-c2nc(-c3ccccc3)no2)cc1` [Compound A-2], the melting point was 221 to 222 °C. In addition, the concentration for half-maximal inhibition (IC50) on MMP-2 stood at 53 nM. This compound displayed an IC50 against MMP-8 Catalytic domain above 1000 nM. In addition, the 50% inhibitory concentration (IC50) against MMP-9 was above 1000 nM.

With `C[C@@H](NS(=O)(=O)c1ccc(-c2nc(-c3ccc(Cl)cc3)no2)cc1)C(=O)O` [Compound A-4], the half-maximal inhibitory concentration (IC50) is 26 nM against MMP-2, above 1000 nM at MMP-8 Catalytic domain and 190 nM against MMP-9. The inhibition in vivo at 20 mg/kg in series [1] stood at 55%. Further, the inhibition in vivo at 200 mg/kg in series [1] is 46%. Further, the “Number of colonies (Mean ± SD)” value stood at 19.2 ± 9.4 in series [1] (setting [4]) and 23.3 ± 12.8 in series [1] (setting [5]).

For the compound `O=C(O)[C@@H](Cc1c[nH]c2ccccc12)NSOOc1ccc(-c2nnn(-c3ccccc3)n2)cc1` [Compound B-1, reference compound], the results for the inhibition in vivo at 20 mg/kg in series [1] (setting [4]), in series [1] (setting [2]) and in series [1] (setting [7]) were 38%, 37% and 39%, respectively. Besides, the inhibition in vivo at 200 mg/kg worked out at 46% in series [1] (setting [5]) and 31% in series [1] (setting [3]). For the same compound, the inhibition in vivo at 2 mg/kg in series [1] (setting [6]) is 14%. Also, the “Number of colonies (Mean ± SD)” value is 26.5 ± 19.5 in series [1] (setting [4]); 23.0 ± 7.6 in series [1] (setting [5]); 34.8 ± 14.5 in series [1] (setting [2]); 38.3 ± 20.7 in series [1] (setting [3]); 53.5 ± 18.5 in series [1] (setting [6]); 37.5 ± 13.0 in series [1] (setting [7]).

Take `C[C@@H](NS(=O)(=O)c1ccc(-c2nc(-c3ccccc3)no2)cc1)C(=O)O` [Compound A-10]: the concentration for half-maximal inhibition (IC50) is 65 nM against MMP-2, above 1000 nM at MMP-8 Catalytic domain and above 1000 nM at MMP-9. For the same compound, in series [1] (setting [4]), the inhibition in vivo at 20 mg/kg amounted to 43%. For the same compound, the inhibition in vivo at 200 mg/kg in series [1] (setting [5]) stood at 41%. Besides, the “Number of colonies (Mean ± SD)” value in series [1] (setting [4]) is 24.5 ± 7.8; in series [1] (setting [5]) it was 25.2 ± 17.0.

As for `Cc1ccc(-c2noc(-c3ccc(S(=O)(=O)N[C@@H](C(=O)O)C(C)C)cc3)n2)s1` [Compound A-93], the figures for the IC50 against MMP-2, on MMP-8 Catalytic domain and against MMP-9 were 6 nM, 88 nM and 47 nM, respectively. In addition, the inhibition in vivo at 2 mg/kg in series [1] stood at 41%. Moreover, the inhibition in vivo at 20 mg/kg in series [1] amounted to 50%. Moreover, the “Number of colonies (Mean ± SD)” value is 36.3 ± 9.2 in series [1] (setting [6]) and 30.8 ± 10.8 in series [1] (setting [7]).

With `C[C@@H](NS(=O)(=O)c1ccc(-c2nc(-c3ccc(F)cc3)no2)cc1)C(=O)O` [Compound A-6], the figures for the 50% inhibitory concentration (IC50) on MMP-2, against MMP-8 Catalytic domain and against MMP-9 were 50 nM, above 1000 nM and above 1000 nM, respectively. Moreover, the inhibition in vivo at 20 mg/kg in series [1] (setting [2]) turned out to be 26%. The inhibition in vivo at 200 mg/kg in series [1] (setting [3]) amounted to 57%. In addition, the “Number of colonies (Mean ± SD)” value in series [1] (setting [2]) amounted to 40.8 ± 13.5; in series [1] (setting [3]) it was 24.0 ± 9.7.

In the case of `Cc1ccc(-c2noc(-c3ccc(S(=O)(=O)N[C@@H](Cc4ccccc4)C(=O)O)cc3)n2)cc1` [Compound A-8], the 50% inhibitory concentration (IC50) against MMP-2 is 51 nM; at MMP-8 Catalytic domain it was above 1000 nM; on MMP-9, 479 nM. Also, the inhibition in vivo at 20 mg/kg in series [1] is 56%. The inhibition in vivo at 200 mg/kg in series [1] worked out at 63%. Moreover, the “Number of colonies (Mean ± SD)” value in series [1] (setting [4]) amounted to 18.8 ± 11.4; in series [1] (setting [5]), 15.7 ± 5.5.

Consider `Cc1ccc(-c2noc(-c3ccc(S(=O)(=O)N[C@H](Cc4ccccc4)C(=O)O)cc3)n2)cc1` [Compound A-3], for which the figures for the concentration for half-maximal inhibition (IC50) at MMP-2, against MMP-8 Catalytic domain and at MMP-9 were 15 nM, 775 nM and 384 nM, respectively.

As to `O=C(O)[C@@H](Cc1c[nH]c2ccccc12)NS(=O)(=O)c1ccc(-c2nc(-c3ccccc3)no2)cc1` [Compound A-9], the IC50 at MMP-2 was 18 nM; on MMP-8 Catalytic domain it was above 1000 nM; against MMP-9, 566 nM. Also, the inhibition in vivo at 20 mg/kg in series [1] (setting [2]) is 30%. Moreover, in series [1] (setting [3]), the inhibition in vivo at 200 mg/kg came out at 51%. The results for the “Number of colonies (Mean ± SD)” value in series [1] (setting [2]) and in series [1] (setting [3]) were 38.7 ± 5.8 and 27.0 ± 9.7, respectively.
